The values that follow come from patent publication US20160000823A1, “METHODS AND COMPOSITIONS FOR IMPROVING HEMOSTASIS” (Mast Therapeutics, Inc., priority 2014, published 2016).

Entries after “also recorded” stand apart in the source; their conditions may differ.

One data set concerns t-PA induced bleeding. Kind of data set: Rat tail bleeding model with tissue plasminogen activator. The class given is in vivo. How it is done:
Tissue plasminogen activator (t-PA) is used clinically to lyse occlusive thrombi. Bleeding complications that result from the unwanted lysis of hemostatic clots limits its use. TA is a synthetic derivative of the amino acid lysine that acts as a fibrinolytic inhibitor and is used clinically to antagonize unwanted bleeding. The effect oft-PA induced bleeding and its antagonism with TA was assessed in a rat tail bleeding model. Rats were anaesthetized by intraperitoneal injection of pentobarbital at 50 mg/kg. The thrombolytic agent t-PA was intravenously injected at a dose of 1 mg/kg, alone or in combination with TA at a dose of 5 mg/kg or 10 mg/kg. Another group of rats were administered 5 mg/kg TA alone. Control rats were administered saline. Each treatment group contained 7-10 rats.
Following treatment, rat tails were amputated about 4 mm from the tip and the tails were immersed in normal saline at 37° C. The bleeding time was determined as the time for complete cessation of blood flow from the amputated tail by visual inspection.
The relative ability of P188 to antagonize t-PA induced bleeding (compared to TA) was studied by evaluating P188 in the same rat tail bleeding model as described in Example 3. […]
Rat tails were amputated about 4 mm from the tip and the tails were immersed in normal saline at 37° C. and bleeding time was assessed as described in Example 3. […]

The subject of data set [1] is embolic middle cerebral artery occlusion. Briefly: Embolic MCAO stroke model: modified neurological severity score (mNSS). The class given is in vivo, rat. Particulars: same schedule. The protocol: (§1) tPA is an effective treatment for acute stroke. Its use is limited by a narrow treatment window (3.5-4.5 hours from onset of stroke) and a greater risk of intracerebral hemnorrhage. […] To show this, the effects of administration of tPA alone, and tPA in combination with P188 were studied in a rat model of embolic middle cerebral artery occlusion. Male Wistar rats (N=10), 3-4 months old and weighing 350-400 g were subjected to embolic middle cerebral artery occlusion (MCAO) as described by Zhang (Zhang R L et al. A rat model of focal embolic cerebral ischemia. Brain Res. 1997, 766:83-92). Following occlusion, neurologic deficit was assessed 30 minutes after MCAO using a 5 point neurological scale (Longa scale; Longa et al., (1989) Stroke 20:84-91).
(§2) To compare the two treatments, P188 in combination with tPA and tPA alone were administered according to the schedule provided in Table 2. The dose of P188 was administered in a volume of 1.0 ml infused over a period of 1 hr by intravenous (IV) infusion via a tail vein. […] At 1 and 7 days after stroke onset (MCAO), clinical neurological function was assessed using the adhesive removal test and modified neurological severity score (mNSS) (Li Y, Chen J, Wang L, Lu M, Chopp M. Treatment of stroke with intracarotid administration of marrow stromal cells. Neurology 2001, 56: 1666-1672). […]

Data set [2] has the same test system. Briefly: Embolic MCAO stroke model: gross hemorrhage. To be noted: day 7 after MCAO, n=10 per group. The class given is in vivo, rat. How it is done: as §1
To compare the two treatments, P188 in combination with tPA and tPA alone were administered according to the schedule provided in Table 2. […] At 1 and 7 days after stroke onset (MCAO), clinical neurological function was assessed using the adhesive removal test and modified neurological severity score (mNSS) (Li Y, Chen J, Wang L, Lu M, Chopp M. Treatment of stroke with intracarotid administration of marrow stromal cells. Neurology 2001, 56: 1666-1672). […]
The harvested brains also were assessed for the incidence of gross hemorrhage, defined as blood evident to the unaided eye on the H&E stained coronal sections. […]

The test system is the same in data set [3]. Briefly: Embolic MCAO stroke model: lesion volume. The class given is in vivo, rat. Particulars: day 7 after MCAO, H&E coronal sections. How it is done:
as §1, §2

The test system is the same in data set [4]. Kind of data set: Embolic MCAO stroke model: adhesive removal test. The class given is in vivo, rat. The protocol: as §1, §2

Regarding `NC[C@H]1CC[C@H](C(=O)O)CC1` [TA, tranexamic acid, reference compound], in the data set on t-PA induced bleeding (t-PA 1 mg/kg IV in combination with TA 5 or 10 mg/kg (FIG. 14)), the t-PA induced bleeding entry is listed as “dose dependent reduction”.

As to tissue plasminogen activator [t-PA], the entries for the “average mNSS score” value in data set [1] (1 day after MCAO) and in data set [1] (7 days after MCAO) were “approximately 10.5” and “approximately 8.5”, respectively. In addition, the “bleeding time of amputated tail” value in the data set on t-PA induced bleeding (t-PA alone 1 mg/kg IV, versus saline) is “marked prolongation of bleeding time; also recorded: increased bleeding time”. In addition, in data set [2], the “animals exhibiting gross hemorrhage” value is 30%. For the same compound, the average lesion volume result in data set [3] is “approximately 35 % of contralateral hemisphere”. Also, the “average time to tape removal” value in data set [4] (day 1 after MCAO, tPA 10 mg/kg IV at 4 hr, P188 300 mg/kg IV at 3.5 hr and 2,000 mg/kg ip at 9.5 hr) was “approximately 120 seconds”; in data set [4] (day 7 after MCAO, same schedule), “approximately 100 seconds”.
